These results are taken from patent US10342794B2, “Substituted imidazo[1,2-a]pyrazines as Syk inhibitors” (Gilead Sciences, Inc., priority 2013, dated 2019).

One may read the IC50 as the concentration needed to halve the response being measured. Read a high IC50 as lower potency. What is called EC50 is the concentration at which the effect is half-maximal. Read a low EC50 as higher potency in that assay.

The structures appear in SMILES notation.

Series [1] deals with basophils in human whole blood (CD63 expression). The series can be described thus: 384-Well HTBS Whole Blood CD63 Basophil Assay (25% blood). The class given is cell-based. The settings on record: for IC50: comparison table with known compounds, human whole blood basophils, head prints IC50; for EC50: human whole blood (25% blood), anti-FceRI mAb activation, CD63 on CCR3 positive cells. On the procedure:
Syk activity was assessed in relation to reduced activation of basophils as measured by the expression of CD63 in a human whole blood basophil cellular assay (25% blood). Basophil activation was measured in human whole blood using the Flow CAST kit (Buhlmann Laboratories AG, Baselstrasse, Switzerland) following the protocol provided by the manufacturer with minor modifications. Fresh human whole blood in heparin was collected and delivered same day (AllCells, Emeryville, Calif.). Whole blood samples were incubated with either DMSO (1% final) or serial diluted compounds in DMSO for 60 minutes at 37° C. Basophils were activated using the anti-FceRI mAb and stained with anti-CD63-FITC and anti-CCR3-PE for 20 minutes at 37° C. (per well: 50 μL of whole blood was mixed with 113 μL of stimulation buffer, 8.5 μL anti-FceRI mAb, 8.5 μL Ab stain CCR3-PE/CD63-FITC). Cells were centrifuged at 1000×g for 18 minutes and 150 μL/well of supernatant removed. Red blood cells were lysed and cells fixed by 2 rounds of cell lysing: resuspending cell pellets with 150 μL/well 1× lysis buffer, incubating at room temperature for 10 minutes, and collecting cell pellets by centrifuging for 1200 rpms for 5 minutes. Cells were washed with 150 µL/well wash buffer twice, and resuspended in a final volume of 75 µL/well of wash buffer for either immediate flow cytometery analysis or overnight incubation at 4° C. followed by flow cytometry analysis. Degranulation (basophil activation) was detected by CD63 surface expression on CCR3 positive cells. The percent CD63 positive cells within the gated basophil population were determined and normalized to the DMSO (negative control) and control compound (positive control).

For a further series, the system named is human hepatocytes. The series can be described thus: Human Hepatocyte Stability Assay (predicted hepatocyte clearance). The class given is in vitro ADME. On the procedure:
The human […] stability of the compounds as predicted hepatocyte clearance in L/hr/kg was assessed. Compounds to be tested were diluted to 200 μM (4 μl of 10 mM DMSO stock into 196 μl ACN:H2O (50:50). Propranolol was used as a positive control, and buffer only without hepatocytes as 0% control. These were further diluted 4 μl with 891 μl KHB buffer (InVitroGRO catalog number Z99074) to provide 2× dosing solution. To each well of 24 well plate, 250 μl of the 2× dosing solution was added to each well with 250 μl of hepatocytes cells (1×10^6 viable cells/ml per well) or KHB for control samples to achieve a final compound concentration of 1 μM during incubation. The final solvent concentration was 0.01% DMSO and 0.25% ACN. The culture plate was placed on a rocker and incubated at 37° C., 5% CO2. Samples were collected at time 0, 1, 3, and 6 hours. The loss of parent compound was determined using LC-MS methods against a standard curve.

Where [2] appears, read: comparison table with known compounds, predicted hepatocyte clearance (L/hr/kg).
[3] abbreviates: predicted hepatocyte clearance, human hepatocytes, 1 μM compound, 0-6 hours.

Consider `COc1ccc(Nc2nc(-c3cccc(N)c3)cn3ccnc23)cc1OC` [6-(3-aminophenyl)-N-(3,4-dimethoxyphenyl)imidazo[1,2-a]pyrazin-8-amine, reference compound], for which, in series [1], the concentration for half-maximal inhibition (IC50) was 809 nM. Further, in the series on human hepatocytes (setting [2]), the “Hheps CL” value is 4 mL/min/kg.
On the same counts, the results for `Cc1ncc(-c2cn3ccnc3c(Nc3ccc(N4CCOCC4)cc3)n2)cc1N` [6-(5-amino-6-methylpyridin-3-yl)-N-(4-morpholinophenyl)imidazo[1,2-a]pyrazin-8-amine, reference compound] are 250 nM and 13.3 mL/min/kg.
In series [1], `Nc1cncc(-c2cn3ccnc3c(Nc3ccc(N4CCO[C@@H](CO)C4)cc3)n2)n1` [Ex.-3, (R)-(4-(4-((6-(6-aminopyrazin-2-yl)imidazo[1,2-a]pyrazin-8-yl)amino)phenyl)morpholin-2-yl)methanol] had an IC50 of 63 nM and an EC50 of 63 nM. In addition, in the series with human hepatocytes (setting [2]), the “Hheps CL” value was 1.5 mL/min/kg. Also, the “Hheps CL” value in the series on human hepatocytes (setting [3]) was 1.5 mL/min/kg.
In series [1], `Cc1c(-c2cncc(N)n2)nc(Nc2ccc(N3CCN(C4COC4)CC3)cc2)c2nccn12` [Ex.-4, 6-(6-aminopyrazin-2-yl)-5-methyl-N-(4-(4-(oxetan-3-yl)piperazin-1-yl)phenyl)imidazo[1,2-a]pyrazin-8-amine] came in with a half-maximal inhibitory concentration (IC50) of 157 nM and a 50% effective concentration (EC50) of 157 nM. For the same compound, the “Hheps CL” value with human hepatocytes (setting [2]) is 1.3 mL/min/kg. Further, in the series with human hepatocytes (setting [3]), the “Hheps CL” value is 1.3 mL/min/kg.
As for `Nc1cncc(-c2cn3ccnc3c(Nc3ccc(N4CCN(C5COC5)CC4)c(OCCO)c3)n2)n1` [Ex.-5, 2-(5-((6-(6-aminopyrazin-2-yl)imidazo[1,2-a]pyrazin-8-yl)amino)-2-(4-(oxetan-3-yl)piperazin-1-yl)phenoxy)ethanol], in series [1], 120 nM corresponded to half-maximal inhibition (IC50) and a half-maximal response (EC50) required 120 nM. In the series with human hepatocytes (setting [2]), the “Hheps CL” value was 1.2 mL/min/kg. For the same compound, the “Hheps CL” value with human hepatocytes (setting [3]) was 1.2 mL/min/kg.
In the case of `Nc1cncc(-c2cn3ccnc3c(Nc3ccc(N4CCN(CC(CO)CO)CC4)cc3)n2)n1` [Ex.-6, 2-((4-(4-((6-(6-aminopyrazin-2-yl)imidazo[1,2-a]pyrazin-8-yl)amino)phenyl)piperazin-1-yl)methyl)propane-1,3-diol], the IC50 in series [1] stood at 128 nM. In series [1], this compound registered a concentration for a half-maximal effect (EC50) of 128 nM. Further, the “Hheps CL” value with human hepatocytes (setting [2]) and with human hepatocytes (setting [3]) was 1.3 mL/min/kg each time.
